Assays:
Assay type in all cases: in vivo
[1] = test system: velvetleaf (Abutilon theophrasti, ABUTH); assay: Example 12: percent control, abrasion 5, 2, 1 days before glyphosate application; details: glyphosate rate (kg a.e./ha)
Description: In these Examples illustrative of the invention, velvetleaf (Abutilon theophrasti, ABUTH) seeds were planted in 4-inch (10.1 cm) square pots containing 100% silt loam soil to which 35 grams/cu ft (1.25 kg/m^3) IBDU fertilizer was added, and covered with a mix of 50% Rediearth plus 50% silt loam. The pots were sub-irrigated and the seedlings thinned after emergence to 2 plants per pot.
Abrasion was applied using propelled 200-mesh garnet exactly as described for Examples 1-9. The herbicide used in these Examples was glyphosate as its isopropylamine salt, applied as diluted MON 2139, exactly as described for Examples 1-9.
The time period between abrasion and herbicide application was varied as follows. In Example 11, all abrasion treatments were applied within a short period of time, and herbicide applications were made 2, 4 and 24 hours after abrasion. A set of abraded plants received no herbicide at any time. In addition, herbicide applications were made to unabraded plants at two times: (i) at the time of abrasion, and (ii) 24 hours after the time of abrasion. In Example 12, all herbicide applications were made within a short period of time, and abrasion was applied 5, 2 and 1 days before herbicide application. In addition, herbicide application was made to unabraded plants.
Three replications were performed of every treatment. After treatment, all plants were placed in the greenhouse for the remainder of the experiment, and sub-irrigated. The first replicate was placed in one block in order of the treatment list for ease of viewing and the remaining replicates were randomly placed in two separate blocks.
After an interval of 12-14 days after herbicide application, a visual evaluation was performed to estimate herbicidal efficacy as percent control of treated plants compared to untreated check plants.

[2] = test system: velvetleaf (Abutilon theophrasti, ABUTH); assay: Example 49: percent control, dry ice (solid carbon dioxide) injury then glyphosate spray
Description: In this Example illustrative of the invention, velvetleaf (Abutilon theophrasti, ABUTH) seeds were planted in 4-inch (10.1-cm) square pots filled with 100% silt loam to which 35 g/cu ft (1.25 kg/m^3) IBDU fertilzer were added, and the seeds were covered with 50% Rediearth plus 50% silt loam without fertilizer. […] The same settings were maintained before and after treatment.
Physical injury in this Example was inflicted on the above-ground portions of the plants, two weeks after planting, by means of 15-30 particles of dry ice (carbon dioxide in its solid phase) propelled on to each plant using a 1 oz (28.3 ml) French square bottle having two 3 mm holes in the lid, with vigorous shaking of the bottle 8-12 inches (20-30 cm) above the plant canopy.
After dry ice treatment, plants were sprayed with glyphosate as its isopropylamine salt, in the form of the aqueous concentrate formulation MON 2139 of Monsanto Company. Plants with and without the dry ice treatment were sprayed at the same time using a track sprayer calibrated to deliver 20 gallons/acre (187 liters/ha) water with an 8002E nozzle having a 50-mesh screen, 16 inches (41 cm) above the plant canopy. Each treatment was replicated three times. Similar glyphosate treatments were applied to plants which had not received dry ice. Plants were returned to the greenhouse after spraying. […]

[3] = test system: velvetleaf (Abutilon theophrasti, ABUTH); assay: Example 50: percent control, KOH chemical corrosive or garnet abrasion then glyphosate spray; details: 11 days after glyphosate application
Description: In this Example illustrative of the invention, velvetleaf (Abutilon theophrasti, ABUTH) seeds were planted in 4-inch (10.1-cm) square pots filled with a soil mix consisting of 50% Metromix 350 plus 50% silt loam soil to which 100 g/cu ft (3.57 kg/m^3) Osmocote fertilizer were added, and the seeds were covered with the same soil mix without added fertilizer. […] The same settings were maintained before and after treatment.
Physical injury in this Example was inflicted on the above-ground portions of the plants, 17 days after planting, by a propelled chemical corrosive, a 2.5% weight/weight aqueous potassium hydroxide (KOH) solution. This solution was applied using a track sprayer calibrated to deliver 20 gallons/acre (187 liters/ha) with an 8002E nozzle having a 50-mesh screen, 16 inches (41 cm) above the plant canopy. Plants were allowed to dry for 1 hour after KOH treatment. Other plants received injury by abrasion using a hand-held Sears Craftsman™ sandblaster as described in Examples 1-9. A third set of plants received no abrasion or corrosion with KOH.
Plants were then assigned to different herbicide treatments in a factorial experimental design with 3 replications. All plants for each herbicide treatment were sprayed at the same time using a track sprayer calibrated to deliver 20 gallons/acre (187 liters/ha) water with an 8002E nozzle having a 50-mesh screen, 16 inches (41 cm) above the plant canopy. In these Examples the herbicide used was glyphosate as its isopropylamine salt, in the form of the aqueous concentrate formulation MON 2139 of Monsanto Company. Spray solutions were made from stock solutions prepared by dilution of MON 2139 in water.
After an interval of 11 days, a visual evaluation was performed to estimate herbicidal efficacy as percent control of treated plants compared to untreated check plants.

O=C(O)CNCP(=O)(O)O [glyphosate, N-phosphonomethylglycine]
percent control of ABUTH 12 days after glyphosate application ([1]; abraded before 0 days, glyphosate 0.056 kg a.e./ha): 79%
percent control of ABUTH 12 days after glyphosate application ([1]; abraded before 0 days, glyphosate 0.11 kg a.e./ha): 95%
percent control of ABUTH 12 days after glyphosate application ([1]; abraded before 0 days, glyphosate 0.22 kg a.e./ha): 100%
percent control of ABUTH 12 days after glyphosate application ([1]; abraded before 1 day, glyphosate 0.056 kg a.e./ha): 77%
percent control of ABUTH 12 days after glyphosate application ([1]; abraded before 1 day, glyphosate 0.11 kg a.e./ha): 92%
percent control of ABUTH 12 days after glyphosate application ([1]; abraded before 1 day, glyphosate 0.22 kg a.e./ha): 100%
percent control of ABUTH 12 days after glyphosate application ([1]; abraded before 2 days, glyphosate 0.056 kg a.e./ha): 76%
percent control of ABUTH 12 days after glyphosate application ([1]; abraded before 2 days, glyphosate 0.11 kg a.e./ha): 93%
percent control of ABUTH 12 days after glyphosate application ([1]; abraded before 2 days, glyphosate 0.22 kg a.e./ha): 100%
percent control of ABUTH 12 days after glyphosate application ([1]; abraded before 5 days, glyphosate 0.056 kg a.e./ha): 52%
percent control of ABUTH 12 days after glyphosate application ([1]; abraded before 5 days, glyphosate 0.11 kg a.e./ha): 73%
percent control of ABUTH 12 days after glyphosate application ([1]; abraded before 5 days, glyphosate 0.22 kg a.e./ha): 97%
percent control of ABUTH 12 days after glyphosate application ([1]; abraded before 5 days, glyphosate 0.45 kg a.e./ha): 100%
percent control of ABUTH ([2]; glyphosate rate 0.014 kg a.i./ha, not treated with dry ice, 5 DAT): 0%
percent control of ABUTH ([2]; glyphosate rate 0.014 kg a.i./ha, not treated with dry ice, 11 DAT): 0%
percent control of ABUTH ([2]; glyphosate rate 0.014 kg a.i./ha, treated with dry ice, 5 DAT): 0%
percent control of ABUTH ([2]; glyphosate rate 0.014 kg a.i./ha, treated with dry ice, 11 DAT): 0%
percent control of ABUTH ([2]; glyphosate rate 0.028 kg a.i./ha, not treated with dry ice, 5 DAT): 0%
percent control of ABUTH ([2]; glyphosate rate 0.028 kg a.i./ha, not treated with dry ice, 11 DAT): 0%
percent control of ABUTH ([2]; glyphosate rate 0.028 kg a.i./ha, treated with dry ice, 5 DAT): 0%
percent control of ABUTH ([2]; glyphosate rate 0.028 kg a.i./ha, treated with dry ice, 11 DAT): 0%
percent control of ABUTH ([2]; glyphosate rate 0.056 kg a.i./ha, not treated with dry ice, 5 DAT): 0%
percent control of ABUTH ([2]; glyphosate rate 0.056 kg a.i./ha, not treated with dry ice, 11 DAT): 0%
percent control of ABUTH ([2]; glyphosate rate 0.056 kg a.i./ha, treated with dry ice, 5 DAT): 0%
percent control of ABUTH ([2]; glyphosate rate 0.056 kg a.i./ha, treated with dry ice, 11 DAT): 2%
percent control of ABUTH ([2]; glyphosate rate 0.11 kg a.i./ha, not treated with dry ice, 5 DAT): 8%
percent control of ABUTH ([2]; glyphosate rate 0.11 kg a.i./ha, not treated with dry ice, 11 DAT): 0%
percent control of ABUTH ([2]; glyphosate rate 0.11 kg a.i./ha, treated with dry ice, 5 DAT): 22%
percent control of ABUTH ([2]; glyphosate rate 0.11 kg a.i./ha, treated with dry ice, 11 DAT): 8%
percent control of ABUTH ([2]; glyphosate rate 0.21 kg a.i./ha, not treated with dry ice, 5 DAT): 60%
percent control of ABUTH ([2]; glyphosate rate 0.21 kg a.i./ha, not treated with dry ice, 11 DAT): 73%
percent control of ABUTH ([2]; glyphosate rate 0.21 kg a.i./ha, treated with dry ice, 5 DAT): 71%
percent control of ABUTH ([2]; glyphosate rate 0.21 kg a.i./ha, treated with dry ice, 11 DAT): 83%
percent control of ABUTH ([2]; glyphosate rate 0.45 kg a.i./ha, not treated with dry ice, 5 DAT): 80%
percent control of ABUTH ([2]; glyphosate rate 0.45 kg a.i./ha, not treated with dry ice, 11 DAT): 100%
percent control of ABUTH ([2]; glyphosate rate 0.45 kg a.i./ha, treated with dry ice, 5 DAT): 89%
percent control of ABUTH ([2]; glyphosate rate 0.45 kg a.i./ha, treated with dry ice, 11 DAT): 100%
percent control of ABUTH ([2]; glyphosate rate 0.89 kg a.i./ha, not treated with dry ice, 5 DAT): 97%
percent control of ABUTH ([2]; glyphosate rate 0.89 kg a.i./ha, not treated with dry ice, 11 DAT): 100%
percent control of ABUTH ([2]; glyphosate rate 0.89 kg a.i./ha, treated with dry ice, 5 DAT): 93%
percent control of ABUTH ([2]; glyphosate rate 0.89 kg a.i./ha, treated with dry ice, 11 DAT): 100%
percent control of ABUTH ([3]; glyphosate rate 0.0140 kg a.e./ha, injury by abrasion): 30%
percent control of ABUTH ([3]; glyphosate rate 0.0140 kg a.e./ha, injury by corrosion (KOH)): 7%
percent control of ABUTH ([3]; glyphosate rate 0.0140 kg a.e./ha, no physical injury): 0%
percent control of ABUTH ([3]; glyphosate rate 0.028 kg a.e./ha, injury by abrasion): 70%
percent control of ABUTH ([3]; glyphosate rate 0.028 kg a.e./ha, injury by corrosion (KOH)): 13%
percent control of ABUTH ([3]; glyphosate rate 0.028 kg a.e./ha, no physical injury): 0%
percent control of ABUTH ([3]; glyphosate rate 0.056 kg a.e./ha, injury by abrasion): 75%
percent control of ABUTH ([3]; glyphosate rate 0.056 kg a.e./ha, injury by corrosion (KOH)): 48%
percent control of ABUTH ([3]; glyphosate rate 0.056 kg a.e./ha, no physical injury): 3%
percent control of ABUTH ([3]; glyphosate rate 0.11 kg a.e./ha, injury by abrasion): 83%
percent control of ABUTH ([3]; glyphosate rate 0.11 kg a.e./ha, injury by corrosion (KOH)): 73%
percent control of ABUTH ([3]; glyphosate rate 0.11 kg a.e./ha, no physical injury): 0%
percent control of ABUTH ([3]; glyphosate rate 0.22 kg a.e./ha, injury by abrasion): 96%
percent control of ABUTH ([3]; glyphosate rate 0.22 kg a.e./ha, injury by corrosion (KOH)): 85%
percent control of ABUTH ([3]; glyphosate rate 0.22 kg a.e./ha, no physical injury): 81%
percent control of ABUTH ([3]; glyphosate rate 0.45 kg a.e./ha, injury by abrasion): 99%
percent control of ABUTH ([3]; glyphosate rate 0.45 kg a.e./ha, injury by corrosion (KOH)): 91%
percent control of ABUTH ([3]; glyphosate rate 0.45 kg a.e./ha, no physical injury): 87%
percent control of ABUTH ([3]; glyphosate rate 0.89 kg a.e./ha, no physical injury): 100%

— patent EP0776155B1, “DELIVERY OF EXOGENOUS CHEMICAL SUBSTANCES TO PLANT TISSUES” (MONSANTO COMPANY, priority 1994, dated 1996)
